In patent publication US9241927B2, “Pharmaceutical compositions comprising sigma receptor ligands” (Laboratories Del Dr, Esteve, S.A., priority 2009, dated 2016):

Tests used:
pKa of API-001 = format: physicochemical
Description: (§1) API-001 has a pKa 6.8, being a weakly basic drug and having a solubility strongly influenced by pH of the medium.

[1] = pH solubility profile of API-001; format: physicochemical
Description: as §1
Therefore, it is expected that the extrusion-spheronization pellets of the invention to be absorbed over all the intestinal tract.

pKa (pKa of API-001): 6.8
solubility ([1]; pH 6.8, aqueous buffer): 600 µg/mL
SMILES: Cc1cc(OCCN2CCOCC2)nn1-c1ccc2ccccc2c1.Cl [API-001, 4-{2-[5-Methyl-1-(naphthalen-2-yl)-1H-pyrazol-3-yloxy]ethyl}morpholine hydrochloride]
pH solubility profile ([1]; FIG. 2): solubility of API-001 is decreasing when is increasing the pH of the medium
